Reference: patent US9029531B2 (Agios Pharmaceuticals, Inc., priority 2012, dated 2015)
pIC50: −log10 of the molar value.

What follows are molecules tested against T1, glutaminase (GAC) (Homo sapiens, UniProt O94925) (assay: Glutaminase coupled endpoint enzymatic assay (Example A)). Conditions: inhibition of glutaminase; assay of Example A or Example B.
T1 sequence (O94925 55-598 isoform O94925-3 limits assumed): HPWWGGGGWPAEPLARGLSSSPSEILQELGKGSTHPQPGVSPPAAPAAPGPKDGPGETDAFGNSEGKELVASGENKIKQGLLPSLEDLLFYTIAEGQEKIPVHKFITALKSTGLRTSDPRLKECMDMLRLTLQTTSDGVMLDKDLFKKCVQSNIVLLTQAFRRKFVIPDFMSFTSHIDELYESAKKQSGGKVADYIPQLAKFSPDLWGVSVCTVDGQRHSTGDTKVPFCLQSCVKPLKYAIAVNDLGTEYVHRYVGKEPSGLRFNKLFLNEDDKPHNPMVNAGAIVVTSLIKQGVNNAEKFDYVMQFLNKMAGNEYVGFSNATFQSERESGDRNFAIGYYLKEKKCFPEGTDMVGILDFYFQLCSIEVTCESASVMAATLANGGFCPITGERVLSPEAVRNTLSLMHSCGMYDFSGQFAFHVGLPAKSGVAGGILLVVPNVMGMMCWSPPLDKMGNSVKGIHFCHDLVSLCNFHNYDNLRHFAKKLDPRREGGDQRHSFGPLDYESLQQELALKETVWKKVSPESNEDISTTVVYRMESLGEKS
Assay type: biochemical
Summary of the method: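 Endpoint coupled assay: glutamate formed by GAC drives GDH NADH production, recycled by diaphorase reducing resazurin to fluorescent resorufin (Ex544/Em590) after SDS stop. Buffer pH 8.5 with phosphate; glutamine at Km; enzyme preincubated with compound 60 min at room temperature.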

| pIC50 | Compound |
| --- | --- |
| > 7.00 | Nc1ccc(CC(=O)Nc2nnc([C@H]3CCC[C@H](c4nnc(NC(=O)Cc5ccc(N)cn5)s4)C3)s2)nc1 [Compound 233, N,N′-(5,5′-((1S,3S)-cyclohexane-1,3-diyl)bis(1,3,4-thiadiazole-5,2-diyl))bis(2-(5-aminopyridin-2-yl)acetamide)] |
| 6.30 to 7.00 | CN(C)C(=O)c1ccc(CC(=O)Nc2nnc([C@H]3CCC[C@H](c4nnc(NC(=O)Cc5ccc(C(=O)N(C)C)cn5)s4)C3)s2)nc1 [Compound 234, 6-[[5-[3-[5-[[2-[5-(dimethylcarbamoyl)pyridin-2-yl]acetyl]amino]-1,3,4-thiadiazol-2-yl]cyclohexyl]-1,3,4-thiadiazol-2-yl]carbamoylmethyl]-N,N-dimethyl-pyridine-3-carboxamide] |
| 6.00 to 6.30 | CCN(CC)c1cccc(CC(=O)Nc2nnc([C@H]3CCC[C@H](c4nnc(NC(=O)Cc5cccc(N(CC)CC)c5)s4)C3)s2)c1 [Compound 235, N,N′-(5,5′-((1S,3S)-cyclohexane-1,3-diyl)bis(1,3,4-thiadiazole-5,2-diyl))bis(2-(3-(diethylamino)phenyl)acetamide)] |
| > 7.00 | CCNc1cccc(CC(=O)Nc2nnc([C@H]3CCC[C@H](c4nnc(NC(=O)Cc5cccc(NCC)c5)s4)C3)s2)c1 [Compound 236, N,N′-(5,5′-((1S,3S)-cyclohexane-1,3-diyl)bis(1,3,4-thiadiazole-5,2-diyl))bis(2-(3-(ethylamino)phenyl)acetamide)] |
| 6.00 to 6.30 | CCN(CC)c1ccc(CC(=O)Nc2nnc([C@H]3CCC[C@H](c4nnc(NC(=O)Cc5ccc(N(CC)CC)cc5)s4)C3)s2)cc1 [Compound 237, N,N′-(5,5′-((1S,3S)-cyclohexane-1,3-diyl)bis(1,3,4-thiadiazole-5,2-diyl))bis(2-(4-(diethylamino)phenyl)acetamide)] |
| > 7.00 | CS(=O)(=O)Nc1ccc(CC(=O)Nc2nnc([C@H]3CCC[C@H](c4nnc(NC(=O)Cc5ccc(NS(C)(=O)=O)cc5)s4)C3)s2)cc1 [Compound 238, N,N′-(5,5′-((1S,3S)-cyclohexane-1,3-diyl)bis(1,3,4-thiadiazole-5,2-diyl))bis(2-(4-(methylsulfonamido)phenyl)acetamide)] |
| > 7.00 | Nc1ccc(CC(=O)Nc2nnc([C@H]3CCC[C@H](c4nnc(NC(=O)Cc5ccc(N)cc5)s4)C3)s2)cc1 [Compound 239, N,N′-(5,5′-((1S,3S)-cyclohexane-1,3-diyl)bis(1,3,4-thiadiazole-5,2-diyl))bis(2-(4-aminophenyl)acetamide)] |
| > 7.00 | O=C(Cc1ccc(F)cn1)Nc1nnc([C@H]2CCC[C@H](c3nnc(NC(=O)Cc4ccc(F)cn4)s3)C2)s1 [Compound 240, N,N′-(5,5′-((1S,3S)-cyclohexane-1,3-diyl)bis(1,3,4-thiadiazole-5,2-diyl))bis(2-(5-fluoropyridin-2-yl)acetamide)] |
| > 7.00 | CN(C)c1ccc(CC(=O)Nc2nnc([C@H]3CCC[C@H](c4nnc(NC(=O)Cc5ccc(N(C)C)cn5)s4)C3)s2)nc1 [Compound 241, N,N′-(5,5′-((1S,3S)-cyclohexane-1,3-diyl)bis(1,3,4-thiadiazole-5,2-diyl))bis(2-(5-(dimethylamino)pyridin-2-yl)acetamide)] |
| > 7.00 | NC(=O)c1ccc(CC(=O)Nc2nnc([C@H]3CCC[C@H](c4nnc(NC(=O)Cc5ccc(C(N)=O)cn5)s4)C3)s2)nc1 [Compound 242] |
| 6.30 to 7.00 | NCc1ccc(CC(=O)Nc2nnc([C@H]3CCC[C@H](c4nnc(NC(=O)Cc5ccc(CN)cn5)s4)C3)s2)nc1 [Compound 243, N,N′-(5,5′-((1S,3S)-cyclohexane-1,3-diyl)bis(1,3,4-thiadiazole-5,2-diyl))bis(2-(5-(aminomethyl)pyridin-2-yl)acetamide)] |
| 6.30 to 7.00 | NCc1cccc(CC(=O)Nc2nnc([C@H]3CCC[C@H](c4nnc(NC(=O)Cc5cccc(CN)n5)s4)C3)s2)n1 [Compound 244, N,N′-(5,5′-((1S,3S)-cyclohexane-1,3-diyl)bis(1,3,4-thiadiazole-5,2-diyl))bis(2-(6-(aminomethyl)pyridin-2-yl)acetamide)] |
| > 7.00 | NCc1cccc(CC(=O)Nc2nnc([C@H]3CCC[C@H](c4nnc(NC(=O)Cc5cccc(CN)c5)s4)C3)s2)c1 [Compound 245, N,N′-(5,5′-((1S,3S)-cyclohexane-1,3-diyl)bis(1,3,4-thiadiazole-5,2-diyl))bis(2-(3-(aminomethyl)phenyl)acetamide)] |
| > 7.00 | NCc1ccc(CC(=O)Nc2nnc([C@H]3CCC[C@H](c4nnc(NC(=O)Cc5ccc(CN)cc5)s4)C3)s2)cc1 [Compound 246, N,N′-(5,5′-((1S,3S)-cyclohexane-1,3-diyl)bis(1,3,4-thiadiazole-5,2-diyl))bis(2-(4-(aminomethyl)phenyl)acetamide)] |
| > 7.00 | CCOc1ccnc(CC(=O)Nc2nnc([C@H]3CCC[C@H](c4nnc(NC(=O)Cc5cc(OCC)ccn5)s4)C3)s2)c1 [Compound 247, N,N′-(5,5′-((1S,3S)-cyclohexane-1,3-diyl)bis(1,3,4-thiadiazole-5,2-diyl))bis(2-(4-ethoxypyridin-2-yl)acetamide)] |
| > 7.00 | COc1ccc(F)c(CC(=O)Nc2nnc([C@H]3CCC[C@H](c4nnc(NC(=O)Cc5cc(OC)ccc5F)s4)C3)s2)c1 [Compound 248, N,N′-(5,5′-((1S,3S)-cyclohexane-1,3-diyl)bis(1,3,4-thiadiazole-5,2-diyl))bis(2-(2-fluoro-5-methoxyphenyl)acetamide)] |
| > 7.00 | O=C(Cc1cccc(N2CC(O)C2)n1)Nc1nnc([C@H]2CCC[C@H](c3nnc(NC(=O)Cc4cccc(N5CC(O)C5)n4)s3)C2)s1 [Compound 249, N,N′-(5,5′-((1S,3S)-cyclohexane-1,3-diyl)bis(1,3,4-thiadiazole-5,2-diyl))bis(2-(6-(3-hydroxyazetidin-1-yl)pyridin-2-yl)acetamide)] |
| 6.30 to 7.00 | O=C(Cc1cccc(NC2CC(F)(F)C2)n1)Nc1nnc([C@H]2CCC[C@H](c3nnc(NC(=O)Cc4cccc(NC5CC(F)(F)C5)n4)s3)C2)s1 [Compound 250, N,N′-(5,5′-((1S,3S)-cyclohexane-1,3-diyl)bis(1,3,4-thiadiazole-5,2-diyl))bis(2-(6-(3,3-difluorocyclobutylamino)pyridin-2-yl)acetamide)] |
| > 7.00 | O=C(Cc1cccc(N2CC(F)C2)n1)Nc1nnc([C@H]2CCC[C@H](c3nnc(NC(=O)Cc4cccc(N5CC(F)C5)n4)s3)C2)s1 [Compound 251, N,N′-(5,5′-((1S,3S)-cyclohexane-1,3-diyl)bis(1,3,4-thiadiazole-5,2-diyl))bis(2-(6-(3-fluoroazetidin-1-yl)pyridin-2-yl)acetamide)] |
| > 7.00 | O=C(Cc1ccc(N2CC(F)(F)C2)cn1)Nc1nnc([C@H]2CCC[C@H](c3nnc(NC(=O)Cc4ccc(N5CC(F)(F)C5)cn4)s3)C2)s1 [Compound 252, N,N′-(5,5′-((1S,3S)-cyclohexane-1,3-diyl)bis(1,3,4-thiadiazole-5,2-diyl))bis(2-(5-(3,3-difluoroazetidin-1-yl)pyridin-2-yl)acetamide)] |
| 6.30 to 7.00 | CC(=O)Nc1nnc([C@H]2CCC[C@H](c3nnc(NC(=O)Cc4ccc(N5CC(F)(F)C5)cn4)s3)C2)s1 [Compound 253, N-(5-((1S,3S)-3-(5-acetamido-1,3,4-thiadiazol-2-yl)cyclohexyl)-1,3,4-thiadiazol-2-yl)-2-(5-(3,3-difluoroazetidin-1-yl)pyridin-2-yl)acetamide] |
